Test system: mice marrow cells
Conditions: 20 mg/kg
Experimental: The study objective was detection and quantitative estimate of cytogenetic (mutagenic) activity of pharmacologic substances in polychromatophil cells (PCC) of mammal marrow. The method is based on microscopic recording of cells with micronuclei.
The experiments were performed to 2 months old male and female F1 (CBAx C57BI6/J) cross-breed mice weighing 18-20 g. Each group included 6 animals. The animals were kept at 12 hours light pattern with free food and water access. Animal experiments for assessment of mutagenic properties of the protein/polypeptide complex with single and five-time dosing were conducted in compliance with official records. Three sessions of experiments were carried out with corresponding controls: therapeutic dose was tested on male animals with a single introduction; subtoxic dose was tested on male animals with a single introduction; therapeutic dose was tested on male animals with a single introduction; subtoxic dose was tested on male animals and female with five-time introduction.
Taking into account that the possible presumed method for usage of the PPC at a clinic was intracutaneous, subcutaneous introduction, and external application, in this study subcutaneous introduction of the substance to mice was used. The PPC complex dosing for assessment of mutagenic activity was calculated based on the maximum human recommended daily therapeutic dose (TD). Subcutaneous introduction of PPC was recommended in the amount of 0.2 to 6 ml at 0.1 mg/ml concentration. In this case, a human therapeutic dose (TD), including a child's dose, can be 0.08 mg/kg/daily. In order to calculate an experiment dosing for mice, a conversion factor is recommended that takes into account a human or animal body surface area to weight ratio. In our study, it was 8.33. Therefore, the mice TD was approximately 8.33 x human TD (0.7 mg/kg).
As a subtoxic dose, 10mg/kg, the maximum possible in this experiment conditions dosing was used, as the substance was presented in 0.1 mg/ml concentration, and the normally used amount of substance for mice is 0.1 ml per 10 g. […]

Compound: O=P1(N(CCCl)CCCl)NCCCO1 (stereo not drawn) [Cyclophosphamide, cyclophosphamide]
- polychromatophilic to normochromatic erythrocytes ratio (compared to control P<0.005): found to shift to the latter
- frequency of micronucleus cells (male mice): 62.1%
- increased frequency of micronucleus cells (male mice, against reference, P<0.001): 19.6 times

Source: patent EP2730585B1, “PROTEIN-P[…] OBTAINED FROM TISSUES OF EMBRYOS OF HOOFED ANIMALS , USE ON SKIN TISSUE, METHOD FOR PRODUCING SAID COMPLEX AND PHARMACEUTICAL COMPOSITION” (Aktsionernoe Obschestvo "Pharm-Sintez", priority 2011, dated 2012)
